Results published in ChEMBL document CHEMBL1201862, “PubChem BioAssay data set” (2004).
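Growth conditions: 96-well plates. Treatment: test compound, 48 hours, 5 concentrations. Analysis: linear interpolation between bracketing concentrations; unreached endpoints set to highest concentration. GI50 is the concentration that inhibits growth by half.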 Active and inactive are the calls of the source. Cut-off read from the data, not from the text of the source: active = GI50 up to about 1.1 µM and inactive = higher.

What was measured:
Assay in all cases: NCI-60 cell line screen, 48 h
786-0 = tested on: 786-0
A549 = tested on: A549
ACHN = tested on: ACHN
CAKI-1 = tested on: CAKI-1
CCRF-CEM = tested on: CCRF-CEM
DU-145 = tested on: DU-145
EKVX = tested on: EKVX
HCC 2998 = tested on: HCC 2998
HCT-116 = tested on: HCT-116
HCT-15 = tested on: HCT-15
HL-60 = tested on: HL-60
HOP-62 = tested on: HOP-62
HT-29 = tested on: HT-29
Hs-578T = tested on: Hs-578T
IGROV-1 = tested on: IGROV-1
K562 = tested on: K562
KM12 = tested on: KM12
LOX IMVI = tested on: LOX IMVI
M14 = tested on: M14
MCF7 = tested on: MCF7
MDA-MB-435 = tested on: MDA-MB-435
MDA-N = tested on: MDA-N
MOLT-4 = tested on: MOLT-4
Malme-3M = tested on: Malme-3M
NCI-H226 = tested on: NCI-H226
NCI-H23 = tested on: NCI-H23
NCI-H460 = tested on: NCI-H460
NCI-H522 = tested on: NCI-H522
NCI/ADR-RES = tested on: NCI/ADR-RES
OVCAR-3 = tested on: OVCAR-3
OVCAR-5 = tested on: OVCAR-5
OVCAR-8 = tested on: OVCAR-8
PC-3 = tested on: PC-3
RPMI-8226 = tested on: RPMI-8226
RXF 393 = tested on: RXF 393
SF-268 = tested on: SF-268
SF-295 = tested on: SF-295
SF-539 = tested on: SF-539
SK-MEL-28 = tested on: SK-MEL-28
SK-MEL-5 = tested on: SK-MEL-5
SN12C = tested on: SN12C
SNB-19 = tested on: SNB-19
SNB-75 = tested on: SNB-75
SR = tested on: SR
SW-620 = tested on: SW-620
T47D = tested on: T47D
TK-10 = tested on: TK-10
U-251 = tested on: U-251
UACC-257 = tested on: UACC-257
UACC-62 = tested on: UACC-62
UO-31 = tested on: UO-31
A498 = tested on: A498
COLO 205 = tested on: COLO 205
HOP-92 = tested on: HOP-92
MDA-MB-231 = tested on: MDA-MB-231
OVCAR-4 = tested on: OVCAR-4
SK-MEL-2 = tested on: SK-MEL-2
SK-OV-3 = tested on: SK-OV-3

## O=C(O)c1ccc(Nc2nc3ccc(C(F)(F)F)cc3nc2-c2ccccc2)cc1
786-0
  GI50: 37.7 µM (inactive)
A549
  GI50: 27 µM (inactive)
ACHN
  GI50: 32.9 µM (inactive)
CAKI-1
  GI50: 44.6 µM (inactive)
CCRF-CEM
  GI50: 36.1 µM (inactive)
DU-145
  GI50: > 10 µM (inactive)
EKVX
  GI50: 29 µM (inactive)
HCC 2998
  GI50: 14.5 µM (inactive)
HCT-116
  GI50: 29.6 µM (inactive)
HCT-15
  GI50: 18.6 µM
HL-60
  GI50: 20.6 µM (inactive)
HOP-62
  GI50: 43 µM (inactive)
HT-29
  GI50: > 10 µM (inactive)
Hs-578T
  GI50: 46.3 µM (inactive)
IGROV-1
  GI50: 43.4 µM (inactive)
K562
  GI50: 45.2 µM (inactive)
KM12
  GI50: > 10 µM (inactive)
LOX IMVI
  GI50: 40.4 µM (inactive)
M14
  GI50: 24 µM (inactive)
MCF7
  GI50: 15 µM (inactive)
MDA-MB-435
  GI50: 34.9 µM (inactive)
MDA-N
  GI50: 47.6 µM (inactive)
MOLT-4
  GI50: 30 µM (inactive)
Malme-3M
  GI50: 33.2 µM (inactive)
NCI-H226
  GI50: 46.1 µM (inactive)
NCI-H23
  GI50: 48 µM (inactive)
NCI-H460
  GI50: 29.6 µM (inactive)
NCI-H522
  GI50: 28.6 µM (inactive)
NCI/ADR-RES
  GI50: 28.8 µM (inactive)
OVCAR-3
  GI50: 17.9 µM (inactive)
OVCAR-5
  GI50: 78 µM (inactive)
OVCAR-8
  GI50: 30.9 µM (inactive)
PC-3
  GI50: 50.9 µM (inactive)
RPMI-8226
  GI50: 30.1 µM (inactive)
RXF 393
  GI50: 20.8 µM (inactive)
SF-268
  GI50: 40.3 µM (inactive)
SF-295
  GI50: 48 µM (inactive)
SF-539
  GI50: 27 µM (inactive)
SK-MEL-28
  GI50: 37.8 µM (inactive)
SK-MEL-5
  GI50: 29.2 µM (inactive)
SN12C
  GI50: 77.6 µM (inactive)
SNB-19
  GI50: 52.2 µM (inactive)
SNB-75
  GI50: 40 µM (inactive)
SR
  GI50: 28.1 µM (inactive)
SW-620
  GI50: 45.7 µM (inactive)
T47D
  GI50: 15.6 µM (inactive)
TK-10
  GI50: 23.1 µM (inactive)
U-251
  GI50: 31.4 µM (inactive)
UACC-257
  GI50: 70 µM (inactive)
UACC-62
  GI50: 14.6 µM (inactive)
UO-31
  GI50: 23.9 µM (inactive)

## CN(Cc1cc(Cl)c(Cl)cc1NC(=O)CN)[C@H]1CCCC[C@@H]1N1CCCC1
786-0
  GI50: 17.1 µM (inactive)
A498
  GI50: 18.4 µM (inactive)
A549
  GI50: 38.3 µM (inactive)
ACHN
  GI50: > 100 µM (inactive)
CAKI-1
  GI50: 92.7 µM (inactive)
CCRF-CEM
  GI50: 30.3 µM (inactive)
COLO 205
  GI50: 15.2 µM (inactive)
EKVX
  GI50: 34.9 µM (inactive)
HCC 2998
  GI50: 17.2 µM (inactive)
HCT-116
  GI50: 20.8 µM (inactive)
HL-60
  GI50: 40.4 µM (inactive)
HOP-62
  GI50: 92.7 µM (inactive)
HOP-92
  GI50: > 100 µM (inactive)
HT-29
  GI50: 19 µM (inactive)
Hs-578T
  GI50: 24.9 µM (inactive)
IGROV-1
  GI50: 66.2 µM (inactive)
K562
  GI50: 17.8 µM (inactive)
KM12
  GI50: 44.4 µM (inactive)
LOX IMVI
  GI50: 15.4 µM (inactive)
M14
  GI50: 17.1 µM (inactive)
MCF7
  GI50: 32.4 µM (inactive)
MDA-MB-231
  GI50: 38.5 µM (inactive)
MDA-MB-435
  GI50: 15.6 µM (inactive)
MDA-N
  GI50: 17 µM (inactive)
MOLT-4
  GI50: 28.8 µM (inactive)
Malme-3M
  GI50: 18.3 µM (inactive)
NCI-H226
  GI50: 66.4 µM (inactive)
NCI-H23
  GI50: > 100 µM (inactive)
NCI-H460
  GI50: 21.8 µM (inactive)
NCI-H522
  GI50: 18.4 µM (inactive)
NCI/ADR-RES
  GI50: > 100 µM (inactive)
OVCAR-3
  GI50: 74 µM (inactive)
OVCAR-4
  GI50: > 100 µM (inactive)
OVCAR-5
  GI50: 46.3 µM (inactive)
OVCAR-8
  GI50: 54.5 µM (inactive)
PC-3
  GI50: 50.7 µM (inactive)
RXF 393
  GI50: > 100 µM (inactive)
SF-268
  GI50: 68.2 µM (inactive)
SF-295
  GI50: 18.6 µM (inactive)
SK-MEL-28
  GI50: 19.8 µM (inactive)
SK-MEL-2
  GI50: 16.2 µM (inactive)
SK-MEL-5
  GI50: 17.7 µM (inactive)
SK-OV-3
  GI50: > 100 µM (inactive)
SN12C
  GI50: 69.3 µM (inactive)
SNB-19
  GI50: 45.2 µM (inactive)
SNB-75
  GI50: > 100 µM (inactive)
SR
  GI50: 21.5 µM (inactive)
SW-620
  GI50: 37.5 µM (inactive)
T47D
  GI50: 38.6 µM (inactive)
TK-10
  GI50: 28.1 µM (inactive)
U-251
  GI50: 5.2 µM (inactive)
UACC-257
  GI50: 16.9 µM (inactive)
UACC-62
  GI50: 17.1 µM (inactive)
UO-31
  GI50: 20.7 µM (inactive)

## Cc1cccc2c(=O)c3cccc([C@@H](C)C(=O)O)c3oc12
786-0
  GI50: > 100 µM (inactive)
A498
  GI50: > 100 µM (inactive)
A549
  GI50: > 100 µM (inactive)
ACHN
  GI50: > 100 µM (inactive)
CAKI-1
  GI50: > 100 µM (inactive)
CCRF-CEM
  GI50: > 100 µM (inactive)
COLO 205
  GI50: > 100 µM (inactive)
DU-145
  GI50: > 100 µM (inactive)
EKVX
  GI50: > 100 µM (inactive)
HCC 2998
  GI50: > 100 µM (inactive)
HCT-116
  GI50: > 100 µM (inactive)
HCT-15
  GI50: > 100 µM
HL-60
  GI50: > 100 µM (inactive)
HOP-62
  GI50: > 100 µM (inactive)
HOP-92
  GI50: > 100 µM (inactive)
HT-29
  GI50: > 100 µM (inactive)
Hs-578T
  GI50: > 100 µM (inactive)
IGROV-1
  GI50: > 100 µM (inactive)
K562
  GI50: > 100 µM (inactive)
KM12
  GI50: > 100 µM (inactive)
LOX IMVI
  GI50: > 100 µM (inactive)
M14
  GI50: > 100 µM (inactive)
MDA-MB-231
  GI50: > 100 µM (inactive)
MDA-MB-435
  GI50: > 100 µM (inactive)
MDA-N
  GI50: > 100 µM (inactive)
MOLT-4
  GI50: > 100 µM (inactive)
NCI-H226
  GI50: > 100 µM (inactive)
NCI-H23
  GI50: > 100 µM (inactive)
NCI-H460
  GI50: > 100 µM (inactive)
NCI-H522
  GI50: > 100 µM (inactive)
NCI/ADR-RES
  GI50: > 100 µM (inactive)
OVCAR-3
  GI50: > 100 µM (inactive)
OVCAR-4
  GI50: > 100 µM (inactive)
OVCAR-8
  GI50: > 100 µM (inactive)
PC-3
  GI50: > 100 µM (inactive)
RPMI-8226
  GI50: > 100 µM (inactive)
SF-268
  GI50: > 100 µM (inactive)
SF-295
  GI50: > 100 µM (inactive)
SF-539
  GI50: > 100 µM (inactive)
SK-MEL-28
  GI50: > 100 µM (inactive)
SK-MEL-2
  GI50: 80.7 µM (inactive)
SK-MEL-5
  GI50: > 100 µM (inactive)
SK-OV-3
  GI50: > 100 µM (inactive)
SN12C
  GI50: > 100 µM (inactive)
SNB-19
  GI50: > 100 µM (inactive)
SR
  GI50: > 100 µM (inactive)
SW-620
  GI50: > 100 µM (inactive)
T47D
  GI50: > 100 µM (inactive)
TK-10
  GI50: > 100 µM (inactive)
U-251
  GI50: > 100 µM (inactive)
UACC-257
  GI50: > 100 µM (inactive)
UACC-62
  GI50: > 10 µM (inactive)
UO-31
  GI50: > 100 µM (inactive)
